Among the data in patent publication US12257239B1, “Cytotoxic treatment of cancer cells” (IMAM MOHAMMAD IBN SAUD ISLAMIC UNIVERSITY, priority 2024, dated 2025) are inhibition, IC50 and growth inhibition percentage values, retold here.

Converted amounts (≈) assume the structure as drawn.

Data set [1] has as its system colorectal carcinoma (HCT116). The experiment in a line: Growth inhibition of cancerous cells, HCT116. In kind it is cell-based. The settings on record: Homo sapiens, HCT-116; HCT116, 100 μg/mL; read-out: growth inhibition percentage. The protocol:
(§1) The compound of Formula I was tested for its antitumor activity against various cancer cell lines, in vitro, in non-small cell lung cancer (A549), colorectal carcinoma (HCT116), prostate cancer (PC3), pharynx squamous carcinoma (FaDu), triple-negative breast cancer (MDA-MB-468), cervical cancer (HeLa), and human oral epithelial normal cell line (OEC).

Data set [2] has as its system pharynx squamous carcinoma (FaDu). The experiment in a line: Growth inhibition of cancerous cells, FaDu. Type of data set: cell-based. Conditions: Homo sapiens. The protocol: as §1
Data set [3] concerns prostate cancer (PC3). The experiment in a line: Growth inhibition of cancerous cells, PC3. Type of data set: cell-based. Conditions: Homo sapiens; PC3, 100 μg/mL; read-out: growth inhibition percentage. The protocol:
as §1

For data set [4], the system named is cervical cancer (HeLa). In words: Growth inhibition of cancerous cells, HeLa. Conditions: Homo sapiens. In kind it is cell-based. The protocol: as §1
For data set [5], the system named is triple-negative breast cancer (MDA-MB-468). The experiment in a line: Growth inhibition of cancerous cells, MDA-MB-468. The settings on record: Homo sapiens; for IC50: MDA-MB-468. In kind it is cell-based. The protocol: as §1
Data set [6] deals with human oral epithelial normal cell line (OEC). Conditions: 100 μg/mL. The protocol: as §1
In data set [7] the test system is human non-small cell lung cancer (A549). In words: Growth inhibition of cancerous cells, A549. Type of data set: cell-based. Conditions: for IC50: A549. The protocol:
as §1

Setting [8] is: 100 μg/mL, read-out: growth inhibition percentage.

`O=C1S/C(=C\c2cc([N+](=O)[O-])ccc2O)C(=O)N1CCN1C(=O)c2ccccc2C1=O` [Formula I, 3-(2-(1,3-dioxoisoindolin-2-yl)ethyl)-5-(2-hydroxy-5-nitrobenzylidene)thiazolidine-2,4-dione]: the inhibition at 100 µg/mL in data set [1] stood at 85.7%; in data set [2] (setting [8]) it was 89.1%; in data set [3], 83.8%; in data set [4] (setting [8]) it was 70.8%; in data set [5] (MDA-MB-468, 100 μg/mL, read-out: growth inhibition percentage), 90.8%; in data set [7] (A549, 100 μg/mL, read-out: growth inhibition percentage), 78%. In addition, the IC50 came to 5.03 µg/mL in data set [2], 5.03 µg/mL in data set [4], 5.5 µg/mL in data set [5] and 6 µg/mL in data set [7]. This molecule also came in with a growth inhibition percentage in data set [6] of 48.89%.
Regarding `COc1cccc2c1C(=O)c1c(O)c3c(c(O)c1C2=O)C[C@@](O)(C(=O)CO)C[C@@H]3O[C@H]1C[C@H](N)[C@H](O)[C@H](C)O1` [doxorubicin, reference compound], the IC50 in data set [2] worked out at 13.2 µg/mL (≈ 24.2 µM); in data set [4], 4.83 µg/mL (≈ 8.89 µM); in data set [5], 7.76 µg/mL (≈ 14.3 µM); in data set [7] it was 7.63 µg/mL (≈ 14 µM).
